Laboratory results reported in BindingDB's records for doi:10.1021/jm00028a001 (University of Pennsylvania, 1994).

Biological target: T1, Dimer of Gag-Pol polyprotein [489-587] (Human immunodeficiency virus 1, UniProt P12497)
T1 construct: 489-587
Assay: Protease Inhibition Assay
Conditions: pH 5.5; 30 °C
Experimental: Sensitivity of HIV-1 protease activity to protease inhibitors was determined by a peptide substrate cleavage assay. Protease products were analyzed on a reverse-phase high-pressure liquid chromatograph.

Row | SMILES | IC50 [nM]
1 | CC(C)C[C@@]1(C2C=N[C@@](Cc3ccccc3)(C[C@H](O)[C@H](Cc3ccccc3)NC(=O)O[C@@H]3CCOC3)C2=O)N=CC([C@@H](Cc2ccccc2)C(N)=O)C1=O (stereo partly drawn) [(3R)-oxolan-3-yl N-[(2S,3S)-4-[(2S)-2-benzyl-4-[(2S)-4-[(1R)-1-carbamoyl-2-phenylethyl]-2-(2-methylpropyl)-3-oxo-2,3-dihydro-1H-pyrrol-2-yl]-3-oxo-2,3-dihydro-1H-pyrrol-2-yl]-3-hydroxy-1-phenylbutan-2-yl]carbamate] | 1.3
2 | CCC(C)[C@@H]1NC(=O)[C@@H](NC[C@@H](O)[C@H](Cc2ccc(O)cc2)NC(=O)[C@H](C(C)C)N2CCCC2=O)Cc2ccc(cc2)OCCCNC1=O (stereo partly drawn) [(2S)-N-[(2S,3R)-4-{[(8S,11S)-8-[(2R)-butan-2-yl]-7,10-dioxo-2-oxa-6,9-diazabicyclo[11.2.2]heptadeca-1(15),13,16-trien-11-yl]amino}-3-hydroxy-1-(4-hydroxyphenyl)butan-2-yl]-3-methyl-2-(2-oxopyrrolidin-1-yl)butanamide] | 10
3 | CC(C)(C)NC(=O)[C@@H]1CCCCN1C[C@@H](O)[C@@H]1Cc2ccc(cc2)OCCCC(=O)N[C@@H](CC(N)=O)C(=O)N1 [Peptidomimetic inhibitor 4] | 0.6
